# Measured values taken from PubChem BioAssay (NCI).
#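 Cells were grown in 96-well plates and exposed to each compound for 48 hours at five concentrations; endpoints were interpolated linearly between bracketing concentrations, or set to the highest concentration if not reached. At the GI50, growth is halved. TGI marks complete inhibition of growth.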
# Legend:
# Test in all cases: inhibition of tumour cell growth, NCI panel, 48 h
# NCI-H23 lung = tested on: NCI-H23 lung
# K-562 leukemia = tested on: K-562 leukemia
# SF-539 CNS = tested on: SF-539 CNS
# RPMI-8226 leukemia = tested on: RPMI-8226 leukemia
# SF-295 CNS = tested on: SF-295 CNS
# COLO 205 colon = tested on: COLO 205 colon
# SW-620 colon = tested on: SW-620 colon
# SNB-75 CNS = tested on: SNB-75 CNS
# MDA-MB-435 = tested on: MDA-MB-435
# UACC-62 melanoma = tested on: UACC-62 melanoma
SMILES,GI50 (NCI-H23 lung) [µM],TGI (NCI-H23 lung) [µM],GI50 (K-562 leukemia) [µM],TGI (K-562 leukemia) [µM],GI50 (SF-539 CNS) [µM],TGI (SF-539 CNS) [µM],GI50 (RPMI-8226 leukemia) [µM],TGI (RPMI-8226 leukemia) [µM],GI50 (SF-295 CNS) [µM],TGI (SF-295 CNS) [µM],GI50 (COLO 205 colon) [µM],TGI (COLO 205 colon) [µM],GI50 (SW-620 colon) [µM],TGI (SW-620 colon) [µM],GI50 (SNB-75 CNS) [µM],TGI (SNB-75 CNS) [µM],GI50 (MDA-MB-435) [µM],TGI (MDA-MB-435) [µM],GI50 (UACC-62 melanoma) [µM],TGI (UACC-62 melanoma) [µM]
Cc1cccc(Cl)c1NC(=O)c1cnc(Nc2cc(N3CCOCC3)cc(N3CCOCC3)c2)s1,> 9.24,> 10,0.00147,> 10,0.0366,> 6.8,> 6.24,> 10,0.154,> 10,0.122,> 8.09,> 6.79,> 10,0.00147,0.0176,4.08,> 10,1.7,> 10
O=C(/C=C/c1cccc([N+](=O)[O-])c1)c1ccc(O)c(CN2CCN(c3cc4c(cc3F)c(=O)c(C(=O)O)cn4C3CC3)CC2)c1,1.81,3.83,0.404,> 100,1.19,2.47,0.418,2.82,1.88,3.9,,,1.1,3.65,1.22,2.51,1.67,3.21,1.66,3.45
CC(C)[NH-].CC(C)[NH-].O.O.[Cl][Pt+2][Cl],30.8,183,39.1,179,47.3,160,38.1,281,42.9,149,30.1,98.7,23.1,137,94.4,308,26,76.2,26.7,128
COc1cc(-c2csc(NC(=O)Nc3cc(C(F)(F)F)cc(C(F)(F)F)c3)n2)cc(OC)c1OC,2.38,13.2,1.92,12,2.28,6.75,0.967,3.76,1.83,5.46,1.8,3.45,3.21,14.6,2.27,10.6,2.81,10.5,1.59,4.53
COc1ccc2c(c1)c1nc3cc(C)c(C)cc3nc1n2CCN(C)C,1.02,2.88,0.431,2.43,0.907,2.35,0.453,2.35,0.677,1.95,0.42,1.88,0.405,1.73,1.29,4.14,1.09,2.51,0.884,2.48
COc1cc2c(cc1OC)C(CC1(O)CCCCC1)N(S(=O)(=O)c1ccc(C)cc1)CC2 (stereo not drawn),> 10,> 10,> 10,> 10,> 10,> 10,> 10,> 10,> 10,> 10,> 10,> 10,> 10,> 10,> 10,> 10,> 10,> 10,> 10,> 10
